Reference: patent publication US20130217664A1, “NOVEL COMPOUNDS USEFUL FOR THE TREATMENT OF DEGENERATIVE AND INFLAMMATORY DISEASES” (priority 2012, published 2013)

Legend:
Assay type in all cases: biochemical
[1] = target: T1, human JAK3 (Homo sapiens, UniProt P52333); test: JAK3 inhibition assay; details: recombinant human JAK3 catalytic domain; polyGT substrate
T1 construct: catalytic domain (amino acids 781-1124; catalog number PV3855); purchased Invitrogen PV3855
Method in brief: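 Radiometric kinase assay: 0.5 ng JAK3 with 2.5 μg polyGT in Tris pH 7.5/MgCl2 buffer, 1 μM ATP plus 0.25 μCi 33P-γ-ATP, 1% DMSO, 45 min at 30 °C, stopped with phosphoric acid.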

[2] = target: T2, human TYK2 (Homo sapiens, UniProt P29597); test: TYK2 inhibition assay; details: recombinant human TYK2 catalytic domain, polyGT substrate
T2 construct: catalytic domain (amino acids 871-1187; catalog number 08-147); purchased Carna Biosciences 08-147
T2 sequence (P29597 871-1187): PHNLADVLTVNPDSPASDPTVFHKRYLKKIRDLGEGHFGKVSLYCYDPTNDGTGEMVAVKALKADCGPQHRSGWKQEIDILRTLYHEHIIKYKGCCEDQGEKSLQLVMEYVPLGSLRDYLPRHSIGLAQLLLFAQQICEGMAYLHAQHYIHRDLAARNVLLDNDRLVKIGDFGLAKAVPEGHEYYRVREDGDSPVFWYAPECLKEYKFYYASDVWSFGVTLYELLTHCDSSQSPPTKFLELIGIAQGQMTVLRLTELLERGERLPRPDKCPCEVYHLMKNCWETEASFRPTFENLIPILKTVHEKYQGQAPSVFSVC
Method in brief: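 Radiometric kinase reaction run 90 min at 30 °C, stopped with phosphoric acid, washed and scintillation-counted.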

[3] = target: T3, human JAK1 (Homo sapiens, UniProt P23458); test: JAK1 inhibition assay (polyGT substrate / Ulight-JAK1 peptide); details: recombinant human JAK1 catalytic domain; polyGT or Ulight-JAK1 peptide assay
T3 construct: catalytic domain, amino acids 866-1154; catalog number PV4774; purchased Invitrogen PV4774
Method in brief: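 Two formats. PolyGT radiometric: 45 min at 30 °C, stopped with phosphoric acid, counted as cpm. Ulight-JAK1 peptide: 60 min at room temperature, stopped with Eu-anti-phosphotyrosine/EDTA, read as RFU. Percent inhibition normalised to vehicle and 10 μM staurosporine.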

[4] = target: T4, human JAK2 (Homo sapiens, UniProt O60674); test: JAK2 inhibition assay (polyGT substrate / Ulight-JAK1 peptide); details: recombinant human JAK2 catalytic domain; polyGT or Ulight-JAK1 peptide assay
T4 construct: catalytic domain (amino acids 808-1132; catalog number PV4210); GST; purchased Invitrogen PV4210
Method in brief: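 Radiometric: 0.025 mU JAK2 with 2.5 μg polyGT, 1 μM ATP plus ^33P-ATP in MOPS pH 7.5 buffer, 1% DMSO, 90 min at 30° C.; filter counting. Alternative TR-FRET format with Ulight-JAK1 peptide, 60 min at room temperature, Eu-anti-phosphotyrosine detection.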

T3 sequence (P23458 866-1154): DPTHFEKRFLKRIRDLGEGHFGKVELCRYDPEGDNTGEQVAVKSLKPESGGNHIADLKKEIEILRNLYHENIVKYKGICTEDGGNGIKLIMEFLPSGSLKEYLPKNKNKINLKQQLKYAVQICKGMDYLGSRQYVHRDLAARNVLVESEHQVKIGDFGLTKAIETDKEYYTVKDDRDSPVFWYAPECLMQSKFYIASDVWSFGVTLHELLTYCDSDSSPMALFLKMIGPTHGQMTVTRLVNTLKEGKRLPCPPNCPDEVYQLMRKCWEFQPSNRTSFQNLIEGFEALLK
T4 sequence (O60674 808-1132): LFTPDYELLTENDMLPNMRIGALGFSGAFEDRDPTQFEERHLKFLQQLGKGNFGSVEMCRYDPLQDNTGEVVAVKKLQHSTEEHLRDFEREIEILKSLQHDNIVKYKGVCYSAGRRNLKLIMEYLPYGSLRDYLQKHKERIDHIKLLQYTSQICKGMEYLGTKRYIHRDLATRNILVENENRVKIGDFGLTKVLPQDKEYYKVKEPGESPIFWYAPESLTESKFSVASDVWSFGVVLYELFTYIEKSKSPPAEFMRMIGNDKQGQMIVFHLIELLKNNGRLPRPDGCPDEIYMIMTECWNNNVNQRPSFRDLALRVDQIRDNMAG
T1 sequence (P52333 781-1124): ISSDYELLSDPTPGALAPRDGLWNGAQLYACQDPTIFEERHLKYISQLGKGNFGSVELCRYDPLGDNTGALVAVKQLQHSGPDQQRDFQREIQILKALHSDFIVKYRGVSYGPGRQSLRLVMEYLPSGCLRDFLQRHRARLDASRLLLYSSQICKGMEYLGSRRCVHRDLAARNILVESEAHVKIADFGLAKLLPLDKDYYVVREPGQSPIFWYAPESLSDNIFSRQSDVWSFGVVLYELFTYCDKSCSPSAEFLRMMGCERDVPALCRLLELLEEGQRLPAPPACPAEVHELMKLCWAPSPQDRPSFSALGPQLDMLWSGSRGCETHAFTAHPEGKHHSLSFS

Row | Structure (SMILES) | IC50 [1] [nM] | IC50 [2] [nM] | IC50 [3] [nM] | IC50 [4] [nM]
1 | COCN(Cc1ccc(N(C)c2cc3c(cn2)ncn3C)c(F)c1)S(C)(=O)=O [Compound 359, N-{3-Fluoro-4-[methyl-(1-methyl-1H-imidazo[4,5-c]pyridin-6-yl)-amino]-benzyl}-N-methoxymethyl-methanesulfonamide] | > 1000 | > 1000 | 101 to 500 | 101 to 500
2 | Cc1ccc(OCc2ccc(C#N)nc2)cc1N(C)c1cc2c(cn1)ncn2C [Compound 92, 5-((4-methyl-3-(methyl(1-methyl-1H-imidazo[4,5-c]pyridin-6-yl)amino)phenoxy)methyl) picolinonitrile] | > 1000 | > 1000 | 0.01 to 100 | > 1000
3 | CCc1cc(CN2CC(C)(C)C2)ccc1N(C)c1cc2c(cn1)ncn2C [Compound 382, [4-(3,3-Dimethyl-azetidin-1-ylmethyl)-2-ethyl-phenyl]-methyl-(1-methyl-1H-imidazo[4,5-c]pyridin-6-yl)-amine] | > 1000 | > 1000 | 101 to 500 | > 1000
4 | CCNC(=O)C1CN(c2cc(CC)c(N(C)c3cc4c(cn3)ncn4C)cn2)C1 [Compound 412, 1-{4-Ethyl-5-[methyl-(1-methyl-1H-imidazo[4,5-c]pyridin-6-yl)-amino]-pyridin-2-yl}-azetidine-3-carboxylic acid ethylamide] | > 1000 | > 1000 | 501 to 1000 | 501 to 1000
5 | CCc1cc(-c2ccc(C#N)s2)ncc1N(C)c1cc2c(cn1)ncn2C [Compound 301, 5-{4-Ethyl-5-[methyl-(1-methyl-1H-imidazo[4,5-c]pyridin-6-yl)-amino]-pyridin-2-yl}-thiophene-2-carbonitrile] | 0.01 to 100 | 0.01 to 100 | 0.01 to 100 | 0.01 to 100
6 | CCc1cn(C2(CC#N)CN(S(C)(=O)=O)C2)nc1N(C)c1cc2c(cn1)ncn2C [Compound 310, (3-{4-Ethyl-3-[methyl-(1-methyl-1H-imidazo[4,5-c]pyridin-6-yl)-mino]-pyrazol-1-yl}-1-methanesulfonyl-azetidin-3-yl)-acetonitrile] | > 1000 | > 1000 | > 1000 | > 1000
7 | CN(c1cc2c(cn1)ncn2C)c1ccc(C2CN(CC(N)=O)C2)cc1OC(F)F [Compound 374, 2-(3-{3-Difluoromethoxy-4-[methyl-(1-methyl-1H-imidazo[4,5-c]pyridin-6-yl)-amino]-phenyl}-azetidin-1-yl)-acetamide] | > 1000 | > 1000 | 101 to 500 | 101 to 500
8 | CN(c1ccc(/C=C/C#N)cc1)c1cc2c(cn1)ncn2C [Compound 345, (E)-3-{4-[Methyl-(1-methyl-1H-imidazo[4,5-c]pyridin-6-yl)-amino]-phenyl}-acrylonitrile] | > 1000 | > 1000 | 101 to 500 | 501 to 1000
9 | CCc1ccccc1N(Cc1cccnc1)c1cc2c(cn1)ncn2C [Compound 462, N-(2-ethylphenyl)-1-methyl-N-(pyridin-3-ylmethyl)-1H-imidazo[4,5-c]pyridin-6-amine] | > 1000 | > 1000 | 501 to 1000 | > 1000
10 | CN(c1cc2c(cn1)ncn2C)c1ccc(C2CN(S(=O)(=O)N3CCOCC3)C2)cc1OC(F)F [Compound 371, {2-Difluoromethoxy-4-[1-(morpholine-4-sulfonyl)-azetidin-3-yl]-phenyl}-methyl-(1-methyl-1H-imidazo[4,5-c]pyridin-6-yl)-amine] | > 1000 | > 1000 | 0.01 to 100 | 101 to 500
11 | CCn1nc(C)cc1N(C)c1cc2c(cn1)ncn2C [Compound 305, (2-Ethyl-5-methyl-2H-pyrazol-3-yl)-methyl-(1-methyl-1H-imidazo[4,5-c]pyridin-6-yl)-amine] | > 1000 | > 1000 | > 1000 | > 1000
12 | CCc1cc(OCC(N)=O)ccc1N(C)c1cc2c(cn1)ncn2C [Compound 299] | > 1000 | 101 to 500 | 0.01 to 100 | 101 to 500
